Consider 3 molecules from patent US20160158381A1, “NOVEL NANOLIPOSOMES AND THEIR USE FOR THE TREATMENT OF AMYLOID PROTEIN DISEASES” (DEPARTMENT OF VETERANS AFFAIRS, TECHNOLOGY TRANSFER PROGRAM, priority 2013, published 2016).

What all share (type): cell-based
The test system of assay [1] is human ex-vivo adipose arterioles exposed to LC. In words: Arteriole vasoreactivity after LC exposure with or without NL. The conditions noted are these: LC+NL co-treated with L-NAME 5 mmol. On the procedure: 9 male subjects (64±3 years old) without AL/diabetes/vascular disease undergoing routine abdominal surgery donated subcutaneous adipose tissue obtained by surgeons. Arterioles (˜[…]) were isolated, cannulated and pressurized (60 mmHg). Baseline/control vasoreactivity was performed following preconstriction with endothelin-1 (60% baseline diameter) and successive administration of acetylcholine (10-9-10-4M) to measure endothelium-dependent dilation and papaverine (10^-4M) to measure smooth-muscle dependent dilation (videomicrometer). After washing, vessels were exposed to LC (20 μg/mL, physiologic concentration of circulating LC in patients) with or without NL (1:10 LC:NL mass ratio) for 1 hour and a second vasoreactivity response performed. In additional arterioles, LC+NL were co-treated with L-NG-nitroarginine methyl ester (L-NAME, 5 mmol, Sigma-Aldrich).
Data is expressed as means±standard error of means. Baseline control and post-treatment dilator response were compared using paired Student's t-test. Overall acetylcholine dilator response was analyzed by deriving the log effective concentration 50% (log EC50) using nonlinear regression and variable slope and least squares fit. For group analyses, one-way or two way analysis of variance with Bonferroni post-test were utilized (GraphPad Prism 5.0, San Diego Calif.).

In assay [2] the test system is human abdominal subcutaneous adipose arterioles exposed to Aβ42. In words: Arteriole vasoreactivity after Aβ42 exposure with or without nanoliposomes. The conditions noted are these: for dilator responses to acetylcholine and papaverine (endothelial function): Aβ42 2 μM with or without nanoliposomes (1:10 Aβ:NLPA mass ratio), one hour. On the procedure:
Human abdominal subcutaneous arterioles were isolated from subjects without vascular disease, pressurized and constricted with endothelin-1. Baseline (control) dilation response was measured following acetylcholine (10_9-10-4M) and papaverine (10^-4M) exposure; after washing, arterioles were exposed to Aβ42 (2 μM)±nanoliposomes (NLPA, 70% cholesterol, 25% phosphatidylcholine, 5% phosphatidic acid, 1:10 Aβ:NLPA mass ratio) and dilator response was measured.

In assay [3] the test system is Human umbilical vein endothelial cells (HUVECs). In words: Endothelial cell nitric oxide production (DAF-2 diacetate fluorescence). To be noted: 1 hour exposure, acetylcholine 10^-4M at 45 minutes. The protocol: Human umbilical vein endothelial cells (HUVECs) were exposed to Aβ42±NLPA or control for 1-hour, acetylcholine (10^-4M) was administered at 45 minutes and nitric oxide (NO production) was measured using DAF-2 diacetate fluorescence (1 hour compared to baseline fluorescence).

Assay [4] has as its system human ex-vivo adipose arterioles exposed to soluble amyloid proteins (light chain). In words: Arteriole endothelial function after LC exposure with clusterin-incorporated nanoliposomes. To be noted: separate experiments; nanoliposomes of cholesterol and phosphatidylcholine; co-treatment with light chain. The source says:
Nanoliposomes were composed of cholesterol, phosphatidylcholine and stearyl triphenylphosphonium (STTP) and clusterin was incorporated by noncovalent means.

“Also recorded” adds a separate entry of the source.

Turning to `COC(=O)[C@@H](N)CCCNC(=N)N[N+](=O)[O-]` [L-NAME, L-NG-nitroarginine methyl ester], in assay [1], the “effect of L-NAME on NL protective effect (dilator response)” value is recorded as “abolished NL protective effect; also recorded: Nanoliposome protective effect was reversed”.
Regarding “Aβ42: Aβ42 peptide, one of the amyloid proteins involved in AD”, the “dilation to acetylcholine 10^−4M” value in assay [2] (Aβ42 2 μM with or without NLPA, 1:10 Aβ:NLPA mass ratio) came out at 61.5±5.7%. For the same molecule, the “dilator responses to acetylcholine and papaverine (endothelial function)” value is “caused endothelial dysfunction” in assay [2] and “reduced” in assay [2] (listed as Aβ). Moreover, the figures for the NO production entry in assay [3] and in assay [3] (listed as Aβ) were “reduced endothelial cell NO gas production” and “reduced”, respectively.
Take “free clusterin: free clusterin without nanoliposome; clusterin is apolipoprotein J, a chaperone protein”: the “dilator response to acetylcholine versus baseline” value in assay [4] is reported as “+3.1%”.
